Measured values reported in ChEMBL document CHEMBL1151629, “Lariciresinol derivatives from Turrea nilotica and Monechma ciliatum” (1984).

System: KB
Experiment: Cytotoxicity against human KB cells
Assay type: functional
Settings: read-out: ED50 (the source's name)

COc1cc(C[C@H]2CO[C@H](c3ccc(OC)c(OC)c3)[C@H]2CO)ccc1O
EC50: > 10 µg/mL
